Source: patent US20160206688A1, “METHODS FOR TREATING BACTEREMIA AND OSTEOMYELITIS USING ORITAVANCIN” (THE MEDICINES COMPANY, priority 2013, published 2016)
Where two headings read alike, the source gives them in different places.

Key:
[1] = tested on: Coagulase-negative staphylococci; assay: Broth microdilution MIC, European bacteraemia isolates 2010-2012; type: cell-based, coagulase-negative staphylococci (CoNS); conditions: Coagulase-negative staphylococci (646); for % Resistant, CLSI: CLSI M100-S23 breakpoints
Procedure: (§1) A total of 2,904 clinical strains responsible for documented bacteremia among unique hospitalized patients in 38 hospitals in 11 European Union countries. Israel, Russia, Turkey and Ukraine were included in this study (2010-2012). Isolates were submitted to a central monitoring laboratory (JMI Laboratories, North Liberty. Iowa. USA), following previously established protocols. Bacterial species identification was performed by using an automated system (Vitek®2; bioMèrieux, Hazelwood, Mo., USA) or conventional biochemical algorithms, as required.
(§2) Isolates were tested for susceptibility by broth microdilution methods following the Clinical and Laboratory Standards Institute (CLSI; M07-A9, 2012) document. Susceptibility testing was performed in cation-adjusted Mueller-Hinton broth (CA-MHB) using dry-form panels manufactured by Thermo Fisher Scientific, formerly TREK Diagnostics Systems/Sensititre (Cleveland. Ohio, USA). These panels provide results equivalent to the CLSI-approved broth microdilution method supplemented with 0.002% polysorbate-80.
(§3) Quality assurance was performed by concurrent testing of CLSI-recommended (M100-S23, 2013) strains: E. faecalis ATCC 29212 and S. aureus ATCC 29213. Interpretation of comparator MIC results was in accordance with published CLSI (M100-S23) and European Committee on Antimicrobial Susceptibility Testing (EUCAST, 2013) criteria.

VRE = assay: Susceptibility of the subject's blood culture isolate (treatment history); type: cell-based; conditions: 2012 July
Excerpt: 11, 2013; the plan was for at least 8 weeks of antibiotic therapy.

S. pyogenes = assay: Broth microdilution MIC, US isolates 2011-2012, blood vs non-blood; type: cell-based
Procedure: (§4) 527 E. faecalis, 176 E. faecium, and 790 BHS (335 S. pyogenes and 455 S. agalactiae) clinical, single patient, non-consecutive isolates were collected in 2011-2012 from 46 sites geographically distributed across the United States. The MICs were determined by broth microdilution testing performed in accordance with CLSI M7 and M100 guidelines. From the resulting database, this analysis focused on the activities of ORI, vancomycin (VAN), daptomycin (DAP), and linezolid (LZD) according to specimen source.

S. agalactiae = assay: as above; type: cell-based
Procedure: as §4

E. faecium [2] = assay: as above; type: cell-based
Procedure: as §4

E. faecalis [3] = assay: as above; type: cell-based
Procedure: as §4

E. faecium [4] = assay: Broth microdilution MIC, European bacteraemia isolates 2010-2012; type: cell-based, Enterococcus faecium; conditions: for % Resistant, CLSI / % Susceptible, CLSI: CLSI M100-S23 breakpoints; for % Resistant, EUCAST / % Susceptible, EUCAST: EUCAST 2013 breakpoints
Procedure: as §1, §2, §3

E. faecalis [5] = assay: as above; type: cell-based, Enterococcus faecalis; conditions: for % Resistant, CLSI / % Susceptible, CLSI: CLSI M100-S23 breakpoints; for % Resistant, EUCAST / % Susceptible, EUCAST: EUCAST 2013 breakpoints; for % susceptible: E. faecalis strains, criteria not stated; for MIC50 / MIC90: Enterococcus faecalis
Procedure: as §1, §2, §3

MDR SA = assay: Microdilution MIC against MDR SA by specimen source; type: cell-based, S. aureus
Procedure: 456 clinical, single-patient, non-consecutive, MDR SA isolates from the known specimen sources collected in 2011-2012 were analyzed. MDR was defined as resistant to ≧3 of the following: erythromycin, clindamycin, gentamicin, levofloxacin, and trimethoprim/sulfamethoxazole. 382 were MRSA and 74 were MSSA. MICs were determined by microdilution testing in accordance with CLSI M7 and M100 guidelines. Although other comparator drugs were tested, this analysis focuses on the activities of ORI, VAN, DAP, and LZD.

S. aureus = assay: Broth microdilution MIC, European bacteraemia isolates 2010-2012; type: cell-based; conditions: S. aureus Methicillin-resistant (1,708); for % Resistant, CLSI / % Susceptible, CLSI: CLSI M100-S23 breakpoints; for % Resistant, EUCAST / % Susceptible, EUCAST: EUCAST 2013 breakpoints; for MIC50 / MIC90: Staphylococcus aureus; for MIC50 / MIC90 / MIC Range: Table 2
Procedure: as §1, §2, §3

[6] = E. faecium Vancomycin-resistant (VanA-phenotype) (153)
[7] = E. faecium Vancomycin-susceptible (257)
[8] = Table 2, E. faecium Vancomycin-resistant (VanA-phenotype) (153)
[9] = Table 2, E. faecium Vancomycin-susceptible (257)
[10] = Enterococcus faecium, Table 2, E. faecium Vancomycin-resistant (VanA-phenotype) (153)
[11] = Enterococcus faecium, Table 2, E. faecium Vancomycin-susceptible (257)

CC(=O)NC[C@H]1CN(c2ccc(N3CCOCC3)c(F)c2)C(=O)O1 [Linezolid, linezolid]
100.0%: % Susceptible, CLSI (E. faecium [4]; [7]) | % Susceptible, EUCAST (E. faecium [4]; [7]) | % Susceptible, CLSI (E. faecalis [5]; E. faecalis (445)) | % Susceptible, EUCAST (E. faecalis [5]; E. faecalis (445)) | % Susceptible, CLSI (S. aureus) | % Susceptible, EUCAST (S. aureus)
0.8%: % Resistant, CLSI [1]
0.5 to 2 mg/L: MIC Range (E. faecalis [5]; Table 2, E. faecalis (445), includes four VanA-phenotype strains)
96.2%: % Susceptible, CLSI (E. faecium [4]; [6]) | % Susceptible, EUCAST (E. faecium [4]; [6]) | % susceptible (E. faecium [4]; VanA-phenotype E. faecium, criteria not stated)
0.5 to 8 mg/L: MIC Range (E. faecium [4]; [8])
1 mg/L: MIC 50% (E. faecium [4]; [9])
susceptible: susceptibility (VRE)
0.25 to 2 mg/L: MIC Range (E. faecium [4]; [9]) | MIC Range (S. aureus)
2 µg/mL: MIC90 (E. faecium [2]; Blood, N 84) | MIC90 (E. faecium [2]; Non-Blood, N 92) | MIC90 (E. faecalis [3]; Blood, N 116) | MIC90 (E. faecalis [3]; Non-Blood, N 411) | MIC90 (E. faecium [4]; Enterococcus faecium, Table 2, E. faecium Vancomycin-resistant (VanA-phenotype) (153), read-out: MIC 90%) | MIC90 (E. faecalis [5]; Table 2, E. faecalis (445), read-out: MIC 90%) | MIC50 (MDR SA; Blood, n = 108) | MIC90 (MDR SA; Blood, n = 108) | Mode (MIC) (MDR SA; Blood, n = 108) | MIC50 (MDR SA; Respiratory, N = 157) | MIC90 (MDR SA; Respiratory, N = 157) | Mode (MIC) (MDR SA; Respiratory, N = 157) | MIC50 (MDR SA; Skin/Wound, N = 191) | MIC90 (MDR SA; Skin/Wound, N = 191) | Mode (MIC) (MDR SA; Skin/Wound, N = 191)
0.5 µg/mL: MIC50 ([1]; Table 2, read-out: MIC 50%)
3.8%: % Resistant, CLSI (E. faecium [4]; [6]) | % Resistant, EUCAST (E. faecium [4]; [6])
0.0%: % Resistant, CLSI (E. faecium [4]; [7]) | % Resistant, EUCAST (E. faecium [4]; [7]) | % Resistant, CLSI (E. faecalis [5]; E. faecalis (445)) | % Resistant, EUCAST (E. faecalis [5]; E. faecalis (445)) | % Resistant, CLSI (S. aureus) | % Resistant, EUCAST (S. aureus)
1 µg/mL: MIC90 ([1]; Table 2, read-out: MIC 90%) | MIC90 (S. pyogenes; Blood, N 53) | MIC90 (S. pyogenes; Non-Blood, N 282) | MIC90 (S. agalactiae; Blood, N 100) | MIC90 (S. agalactiae; Non-Blood, N 355) | MIC50 (E. faecium [4]; Enterococcus faecium, Table 2, E. faecium Vancomycin-resistant (VanA-phenotype) (153), read-out: MIC 50%) | MIC90 (E. faecium [4]; Enterococcus faecium, Table 2, E. faecium Vancomycin-susceptible (257), read-out: MIC 90%) | MIC50 (E. faecalis [5]; Table 2, E. faecalis (445), read-out: MIC 50%) | MIC50 (S. aureus; read-out: MIC 50%) | MIC90 (S. aureus; read-out: MIC 90%)
100%: % susceptible (E. faecalis [5])

CN[C@H](CC(C)C)C(=O)N[C@H]1C(=O)N[C@@H](CC(N)=O)C(=O)N[C@H]2C(=O)N[C@H]3C(=O)N[C@H](C(=O)N[C@H](C(=O)O)c4cc(O)cc(O)c4-c4cc3ccc4O)[C@H](O)c3ccc(c(Cl)c3)Oc3cc2cc(c3O[C@@H]2O[C@H](CO)[C@@H](O)[C@H](O)[C@H]2O[C@H]2C[C@](C)(N)[C@H](O)[C@H](C)O2)Oc2ccc(cc2Cl)[C@H]1O [Vancomycin, vancomycin]
100.0%: % Resistant, CLSI (E. faecium [4]; [6]) | % Resistant, EUCAST (E. faecium [4]; [6]) | % Susceptible, CLSI (E. faecium [4]; [7]) | % Susceptible, EUCAST (E. faecium [4]; [7]) | % Susceptible, CLSI (S. aureus) | % Susceptible, EUCAST (S. aureus)
0.25 to 4 mg/L: MIC Range ([1]; Table 2)
0.25 to 2 mg/L: MIC Range (S. aureus)
> 32 µg/mL: MIC90 (E. faecium [2]; Blood, N 84) | MIC90 (E. faecium [2]; Non-Blood, N 92)
> 16 µg/mL: MIC50 (E. faecium [4]; [10]) | MIC90 (E. faecium [4]; [10])
2 µg/mL: MIC50 ([1]; Table 2) | MIC90 ([1]; Table 2) | MIC90 (E. faecalis [3]; Blood, N 116) | MIC90 (E. faecalis [3]; Non-Blood, N 411) | MIC90 (E. faecalis [5])
0.5-2: Range (MIC) (MDR SA; Blood, n = 108, in µg/mL)
99.1%: % Susceptible, CLSI (E. faecalis [5]; E. faecalis (445)) | % Susceptible, EUCAST (E. faecalis [5]; E. faecalis (445)) | % susceptible (E. faecalis [5])
≦0.25-1: Range (MIC) (MDR SA; Respiratory, N = 157) | Range (MIC) (MDR SA; Skin/Wound, N = 191)
>16 mg/L: MIC Range (E. faecium [4]; [8])
> 4 µg/mL: MIC (E. faecium [4]; Enterococcus faecium, read-out: MIC values)
0.0%: % Resistant, CLSI [1] | % Susceptible, CLSI (E. faecium [4]; [6]) | % Susceptible, EUCAST (E. faecium [4]; [6]) | % Resistant, CLSI (E. faecium [4]; [7]) | % Resistant, EUCAST (E. faecium [4]; [7]) | % Resistant, CLSI (S. aureus) | % Resistant, EUCAST (S. aureus)
1 µg/mL: MIC50 (E. faecium [4]; [11]) | MIC90 (E. faecium [4]; [11]) | MIC50 (E. faecalis [5]) | MIC90 (MDR SA; Blood, n = 108) | MIC90 (MDR SA; Respiratory, N = 157) | MIC90 (MDR SA; Skin/Wound, N = 191) | MIC50 (S. aureus) | MIC90 (S. aureus)
0.5 to 4 mg/L: MIC Range (E. faecium [4]; [9])
0.25 µg/mL: MIC90 (S. pyogenes; Blood, N 53) | MIC90 (S. pyogenes; Non-Blood, N 282)
0.9%: % Resistant, CLSI (E. faecalis [5]; E. faecalis (445)) | % Resistant, EUCAST (E. faecalis [5]; E. faecalis (445))
0.5 µg/mL: MIC90 (S. agalactiae; Blood, N 100) | MIC90 (S. agalactiae; Non-Blood, N 355) | MIC50 (MDR SA; Blood, n = 108) | Mode (MIC) (MDR SA; Blood, n = 108) | MIC50 (MDR SA; Respiratory, N = 157) | Mode (MIC) (MDR SA; Respiratory, N = 157) | MIC50 (MDR SA; Skin/Wound, N = 191) | Mode (MIC) (MDR SA; Skin/Wound, N = 191)
